± gives the expanded uncertainty stated by the source.
Assay: refractive index (other wavelength) (dimensionless); xn = mol fraction of the nth substance listed
Conditions: 101 kPa, Liquid, Standard Abbe refractometry

CC(C)OC(C)C [diisopropyl ether] + CC(C)O
Conditions	refractive index
308.15 K, Wavelength=632.8 nm, x1 = 0.8864	1.36026 ± 0.00042
308.15 K, Wavelength=632.8 nm, x1 = 0.8903	1.35981 ± 0.00042
308.15 K, Wavelength=632.8 nm, x1 = 0.9113	1.35957 ± 0.00042
308.15 K, Wavelength=632.8 nm, x1 = 0.9547	1.3591 ± 0.00043
308.15 K, Wavelength=632.8 nm, x1 = 0.973	1.35877 ± 0.00043
308.15 K, Wavelength=632.8 nm, x1 = 0.9771	1.35864 ± 0.00043
308.15 K, Wavelength=632.8 nm, x1 = 1	1.35853 ± 0.00043
308.15 K, Wavelength=644 nm, x1 = 0.0277	1.36899 ± 0.00032
308.15 K, Wavelength=644 nm, x1 = 0.0507	1.36894 ± 0.00032
308.15 K, Wavelength=644 nm, x1 = 0.051	1.36887 ± 0.00032
308.15 K, Wavelength=644 nm, x1 = 0.0717	1.36856 ± 0.00032
308.15 K, Wavelength=644 nm, x1 = 0.1528	1.3679 ± 0.00032
308.15 K, Wavelength=644 nm, x1 = 0.1553	1.3679 ± 0.00032
308.15 K, Wavelength=644 nm, x1 = 0.1938	1.36761 ± 0.00033
308.15 K, Wavelength=644 nm, x1 = 0.2029	1.36718 ± 0.00033
308.15 K, Wavelength=644 nm, x1 = 0.245	1.36676 ± 0.00033
308.15 K, Wavelength=644 nm, x1 = 0.297	1.36601 ± 0.00034
308.15 K, Wavelength=644 nm, x1 = 0.2973	1.36623 ± 0.00034
308.15 K, Wavelength=644 nm, x1 = 0.3068	1.36594 ± 0.00034
308.15 K, Wavelength=644 nm, x1 = 0.398	1.36466 ± 0.00035
308.15 K, Wavelength=644 nm, x1 = 0.4609	1.36397 ± 0.00035
308.15 K, Wavelength=644 nm, x1 = 0.5434	1.36309 ± 0.00036
308.15 K, Wavelength=644 nm, x1 = 0.6032	1.36241 ± 0.00037
308.15 K, Wavelength=644 nm, x1 = 0.6371	1.36205 ± 0.00038
308.15 K, Wavelength=644 nm, x1 = 0.701	1.36135 ± 0.00039
308.15 K, Wavelength=644 nm, x1 = 0.754	1.36096 ± 0.00039
308.15 K, Wavelength=644 nm, x1 = 0.791	1.36054 ± 0.0004
308.15 K, Wavelength=644 nm, x1 = 0.8296	1.36018 ± 0.00041
308.15 K, Wavelength=644 nm, x1 = 0.8864	1.35996 ± 0.00042
308.15 K, Wavelength=644 nm, x1 = 0.8903	1.35952 ± 0.00042
308.15 K, Wavelength=644 nm, x1 = 0.9113	1.35928 ± 0.00042
308.15 K, Wavelength=644 nm, x1 = 0.9547	1.3588 ± 0.00043
308.15 K, Wavelength=644 nm, x1 = 0.973	1.35847 ± 0.00043
308.15 K, Wavelength=644 nm, x1 = 0.9771	1.35835 ± 0.00043
308.15 K, Wavelength=644 nm, x1 = 1	1.35823 ± 0.00043
308.15 K, Wavelength=706.5 nm, x1 = 0.0277	1.36755 ± 0.00032
308.15 K, Wavelength=706.5 nm, x1 = 0.0507	1.36748 ± 0.00032
308.15 K, Wavelength=706.5 nm, x1 = 0.051	1.36742 ± 0.00032
308.15 K, Wavelength=706.5 nm, x1 = 0.0717	1.36711 ± 0.00032
308.15 K, Wavelength=706.5 nm, x1 = 0.1528	1.36646 ± 0.00032
308.15 K, Wavelength=706.5 nm, x1 = 0.1553	1.36646 ± 0.00032
308.15 K, Wavelength=706.5 nm, x1 = 0.1938	1.36617 ± 0.00033
308.15 K, Wavelength=706.5 nm, x1 = 0.2029	1.36573 ± 0.00033
308.15 K, Wavelength=706.5 nm, x1 = 0.245	1.36532 ± 0.00033
308.15 K, Wavelength=706.5 nm, x1 = 0.297	1.36457 ± 0.00034
308.15 K, Wavelength=706.5 nm, x1 = 0.2973	1.3648 ± 0.00034
308.15 K, Wavelength=706.5 nm, x1 = 0.3068	1.36451 ± 0.00034
308.15 K, Wavelength=706.5 nm, x1 = 0.398	1.36323 ± 0.00035
308.15 K, Wavelength=706.5 nm, x1 = 0.4609	1.36254 ± 0.00035
308.15 K, Wavelength=706.5 nm, x1 = 0.5434	1.36168 ± 0.00036
308.15 K, Wavelength=706.5 nm, x1 = 0.6032	1.361 ± 0.00037
308.15 K, Wavelength=706.5 nm, x1 = 0.6371	1.36064 ± 0.00038
308.15 K, Wavelength=706.5 nm, x1 = 0.701	1.35993 ± 0.00039
308.15 K, Wavelength=706.5 nm, x1 = 0.754	1.35954 ± 0.00039
308.15 K, Wavelength=706.5 nm, x1 = 0.791	1.35911 ± 0.0004
308.15 K, Wavelength=706.5 nm, x1 = 0.8296	1.35877 ± 0.00041
308.15 K, Wavelength=706.5 nm, x1 = 0.8864	1.35855 ± 0.00042
308.15 K, Wavelength=706.5 nm, x1 = 0.8903	1.3581 ± 0.00042
308.15 K, Wavelength=706.5 nm, x1 = 0.9113	1.35786 ± 0.00042
308.15 K, Wavelength=706.5 nm, x1 = 0.9547	1.35741 ± 0.00043
308.15 K, Wavelength=706.5 nm, x1 = 0.973	1.35707 ± 0.00043
308.15 K, Wavelength=706.5 nm, x1 = 0.9771	1.35694 ± 0.00043
308.15 K, Wavelength=706.5 nm, x1 = 1	1.35683 ± 0.00043
313.15 K, Wavelength=404.7 nm, x1 = 0.0277	1.37904 ± 0.00032
313.15 K, Wavelength=404.7 nm, x1 = 0.0507	1.37898 ± 0.00032
313.15 K, Wavelength=404.7 nm, x1 = 0.051	1.37891 ± 0.00032
313.15 K, Wavelength=404.7 nm, x1 = 0.0717	1.37855 ± 0.00032
313.15 K, Wavelength=404.7 nm, x1 = 0.1528	1.37787 ± 0.00032
313.15 K, Wavelength=404.7 nm, x1 = 0.1553	1.37787 ± 0.00032
313.15 K, Wavelength=404.7 nm, x1 = 0.1938	1.37761 ± 0.00033
313.15 K, Wavelength=404.7 nm, x1 = 0.2029	1.37706 ± 0.00033
313.15 K, Wavelength=404.7 nm, x1 = 0.245	1.37653 ± 0.00033
313.15 K, Wavelength=404.7 nm, x1 = 0.297	1.37571 ± 0.00034
313.15 K, Wavelength=404.7 nm, x1 = 0.2973	1.37596 ± 0.00034
313.15 K, Wavelength=404.7 nm, x1 = 0.3068	1.37567 ± 0.00034
313.15 K, Wavelength=404.7 nm, x1 = 0.398	1.37428 ± 0.00035
313.15 K, Wavelength=404.7 nm, x1 = 0.4609	1.37355 ± 0.00035
313.15 K, Wavelength=404.7 nm, x1 = 0.5434	1.37263 ± 0.00036
313.15 K, Wavelength=404.7 nm, x1 = 0.6032	1.37187 ± 0.00037
313.15 K, Wavelength=404.7 nm, x1 = 0.6371	1.37152 ± 0.00038
313.15 K, Wavelength=404.7 nm, x1 = 0.701	1.37074 ± 0.00039
313.15 K, Wavelength=404.7 nm, x1 = 0.754	1.3703 ± 0.00039
313.15 K, Wavelength=404.7 nm, x1 = 0.791	1.36988 ± 0.0004
313.15 K, Wavelength=404.7 nm, x1 = 0.8296	1.36948 ± 0.00041
313.15 K, Wavelength=404.7 nm, x1 = 0.8864	1.36937 ± 0.00042
313.15 K, Wavelength=404.7 nm, x1 = 0.8903	1.3688 ± 0.00042
313.15 K, Wavelength=404.7 nm, x1 = 0.9113	1.36853 ± 0.00042
313.15 K, Wavelength=404.7 nm, x1 = 0.9547	1.36805 ± 0.00043
313.15 K, Wavelength=404.7 nm, x1 = 0.973	1.36771 ± 0.00043
313.15 K, Wavelength=404.7 nm, x1 = 0.9771	1.36756 ± 0.00043
313.15 K, Wavelength=404.7 nm, x1 = 1	1.3674 ± 0.00044
313.15 K, Wavelength=435.8 nm, x1 = 0.0277	1.37606 ± 0.00032
313.15 K, Wavelength=435.8 nm, x1 = 0.0507	1.376 ± 0.00032
313.15 K, Wavelength=435.8 nm, x1 = 0.051	1.37594 ± 0.00032

Reference: the NIST ThermoML archive (doi:10.1016/j.fluid.2014.09.014)
